Measurements as given in patent US20260274810A1, “NOVEL MITOFUSIN INHIBITORS” (ALBERT EINSTEIN COLLEGE OF MEDICINE, priority 2023, published 2026).
Blank lines part the entries; values can stand above or below the compound they belong to. Numbered stars: 1 amine (or outer) side, 2 acyl side, 3 side chain; on linkers, the order of the positions; unused ones are H or OH. Bridge positions count the residues as written; N and C are the ends. Square brackets hold non-standard residues; d marks the D form. Peptide text beside a SMILES is read from it. I, II: the chains in the order shown. Hexamethylenediamine = C(CCCN[*:2])CCN[*:1]; Dip = N[C@H](C(=O)O)C(c1ccccc1)c1ccccc1; Chg = N[C@H](C(=O)O)C1CCCCC1; NMeA = CN[C@@H](C)C(=O)O

Columns and labels:
HR2 domain of MFN2 = target: T1, HR2 domain of MFN2 (Homo sapiens, UniProt O95140); test: Microscale thermophoresis (MST) binding
T1 construct: Human MFN2 residues 678-757 corresponding to the HR2 domain; made in house; host or cells: E. coli BL21(DE3) CodonPlus (DE3)-RIPL
T1 sequence (O95140 678-757): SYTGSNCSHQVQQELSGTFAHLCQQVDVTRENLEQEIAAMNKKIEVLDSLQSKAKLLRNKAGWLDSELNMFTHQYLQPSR
Protocol: Freshly purified His-tagged MFN2-HR2 domain was used for Microscale Thermophoresis (MST) binding studies. For protein labelling, a fresh stock of 5 M His-tag-RED-tris-NTA 2nd generation dye (Nanotemper) in 25 mM Hepes pH 7.5, 100 mM NaCl, 0.005% Tween-20 (assay buffer) was used to label 500 nM of MFN2-HR2 in the same buffer. The labeling reaction was incubated for 30 min at RT and centrifuged at 15.000×g at 4° C. for 10 min. Labelled protein from the supernatant was kept on ice and used immediately. Compounds were serially diluted in 100% DMSO. Immediately before mixing with labeled protein, the dilution series was transferred in assay buffer to reach 2% DMSO. 10 μl of each compound in the final series was mixed with 10 µl of labeled protein and samples were incubated for 5 min at 30° C. before MST measurement using a MonolithNT.115 instrument (Nanotemper). Peptides were diluted in assay buffer plus 2% DMSO and treated as above. […] Kd values were obtained from non-linear regression fits of normalized data to a three or four parameter logistic curve, using GraphPad Prism 9.

caspase-3/7 in MEFs = test: Caspase-3/7 activation assay; format: cell-based, mouse; details: 6 hr
Protocol: Caspase-3/7 activation assay. Cells (5×10^3 cells/well) were seeded in a 96-well white plate and treated with MASM7, MFI8. Caspase 3/7 activation was measured after 6 hr by addition of the Caspase-Glo 3/7 reagent according to the manufacturer's protocol (Promega). Luminescence was detected by a F200 PRO microplate reader (TECAN). Caspase assays were performed in at least triplicate and the data normalized to vehicle-treated control wells. Dilutions of MASM7 or MFI8 were performed using a TECAN D300e Digital Dispenser from 10 mM stocks.

MEFs = test: Mitochondrial aspect ratio (Mito AR), live cell imaging; details: for mitochondrial aspect ratio / mitochondrial fragmentation: WT cells
Protocol: Live cell imaging. MEFs were seeded on chamber slides (MatTek Corporation: 35 mm dishes, No. 1.5, 14 mm glass diameter) at ~70% confluence. […] Images were taken with Leica SP5 inverted confocal microscope. Data were analyzed with Image J software. >200 mitochondria were measured per condition in mitochondrial aspect ratio.
Measurement of mitochondrial aspect ratio (Mito AR). Images that depict stained mitochondria with mitotracker green were analyzed using FIJI We measured for each mitochondrion its length and width. Then, we divided the length by the width for each mitochondrion to get its mitochondrial aspect ratio. >200 mitochondria were measured per treatment.
MEFs were seeded on chamber slides (MatTek Corporation: 35 mm dishes, No. 1.5, 14 mm glass diameter) at ~70% confluence. Cells were treated with compounds. Then, cells were stained with MitoTracker Green (200 nM, Invitrogen) for 20 min at 37° C. After treatments, media was replaced with FluoroBrite™ DMEM (Invitrogen) supplemented with 10% FBS, 100 U ml^−1 penicillin/streptomycin, 2 mM L-glutamine and compound prior image acquisition. Images were taken with Leica SP5 inverted confocal microscope. Data were analyzed with Image J software. >200 mitochondria were measured per condition in mitochondrial aspect ratio. Measurement of mitochondrial aspect ratio (Mito AR). Images that depict stained mitochondria with mitotracker green were analyzed using FIJI software. Each mitochondrion was measured for its length and width. Then, the length was divided by the width for each mitochondrion to get its mitochondrial aspect ratio. >200 mitochondria were measured per treatment.

cells = test: Cell death assay (Annexin V / PI); format: cell-based
Protocol: Cell death assay. Cells (2×10^5 cells/well) were seeded in a 6-well plate and treated with the indicated drugs for 6 hours. Cells were dissociated using Accutase (Thermo Fisher; Cat. #00-4555-56) in order to avoid accidental exposure of phosphatidylserine on the outer plasma membrane. Cell death was evaluated with Dead Cell Apoptosis Kit with Annexin V Alexa Fluor™ 488 & Propidium Iodide (Thermo Fisher; Cat. #V13241) according to manufacturer's protocol. Data was acquired by BD LSRII flow cytometer system using BD FACSDiva software. Data was analyzed by FlowJo (BD).

[1] = mouse liver microsome assay; format: in vitro ADME; details: FIG. 2
MFNs = details: reported small molecule; cited from earlier work

SMILES: CN[C@@H](C)C(=O)N[C@H](C(=O)N1CCC[C@H]1C(=O)N[C@H](C(=O)NCCCCCCNC(=O)[C@@H](NC(=O)[C@@H]1CCCN1C(=O)[C@@H](NC(=O)[C@H](C)NC)C1CCCCC1)C(c1ccccc1)c1ccccc1)C(c1ccccc1)c1ccccc1)C1CCCCC1 [BV6, reference compound] (I: H-[NMeA][Chg]P[Dip] / II: H-[NMeA][Chg]P[Dip]; linker I:C-II:C via Hexamethylenediamine)
cell death on BV6 treatment (cells; deletion of MFNs): sensitized cells to BV6 treatment

SMILES: Cc1oncc1C(=O)Nc1ccc(C(F)(F)F)cc1 [Leflunomide]
MFNs protein levels (MFNs): alters MFNs protein levels through loss of pyrimidine synthesis

Further lines, with some results ahead:

binding to the HR2 domain of MFN2 (HR2 domain of MFN2): did not demonstrate measurable binding | caspase-3/7 activity (caspase-3/7 in MEFs): did not increase caspase-3/7 activity
SMILES: Cc1cccc(NC(C)c2ccccc2O)c1C (stereo not shown) [MFI22]
mitochondrial aspect ratio / mitochondrial fragmentation (MEFs): significantly reduced the capacity of the compound to promote mitochondrial fragmentation | sensitization to BV6-induced cell death (cells; combined with BV6): did not sensitize cells to BV6 treatment

half life (t½) [1]: increased half life | IC50 (MEFs; Mus musculus, 6 h, read-out: IC50 (decrease of Mito AR)): 1.79 µM
SMILES: Cc1cccc(NC(=O)c2cc(Cl)cc(-c3ccccn3)c2O)c1C [MFI43]

binding to the HR2 domain of MFN2 (HR2 domain of MFN2): did not demonstrate measurable binding
SMILES: Cc1cccc(NC(C)c2cccc(Cl)c2)c1C (stereo not shown) [MFI26]
mitochondrial aspect ratio / mitochondrial fragmentation (MEFs): detrimental for the activity
